Calls of active or inactive are those of the source. The calls are words filed in the database; no cut-off is given here.
What was measured:
4T1 [1] = assay: Anticancer activity against mouse 4T1 cells assessed as inhibition of cell growth incubated for 24 hrs by CCK-8 assay; format: functional, cell-based; conditions: 4T1, 24 h
4T1 [2] = assay: Anticancer activity against mouse 4T1 cells assessed as inhibition of cell growth incubated for 72 hrs by CCK-8 assay; format: functional, cell-based; conditions: 4T1, 72 h
4T1 [3] = assay: Anticancer activity against mouse 4T1 cells assessed as inhibition of cell growth incubated for 48 hrs by CCK-8 assay; format: functional, cell-based; conditions: 4T1, 48 h
[4] = Prodrug conversion in serum (unknown origin) assessed as drug hydrolysis by measuring stachydrine release at 3 to 20 hrs; format: ADME, cell-free; conditions: time 3-20 hrs
[5] = Toxicity in BALB/c mouse implanted with mouse 4T1 cells assessed as increase in splenic red pulp at 0.2 mmol/Kg, po administered once every day for 14 days; format: organism-based; conditions: in vivo, 336 h, time 14 day
[6] = Prodrug conversion in cell culture medium containing 10% FBS assessed as drug hydrolysis by measuring stachydrine release at 3 to 20 hrs; format: ADME; conditions: cattle; time 3-20 hrs
4T1 [7] = assay: Induction of mitochondrial membrane potential loss in mouse 4T1 cells assessed as red fluorescence at 250 uM incubated for 24 hrs by JC-1 staining based flow cytometric analysis (Rvb= 87.9%); format: cell-based
[8] = Toxicity in BALB/c mouse implanted with mouse 4T1 cells assessed as body weight loss at 0.2 mmol/Kg, po administered once daily for 14 days; format: organism-based; conditions: in vivo, 336 h, time 14 day
[9] = Toxicity in BALB/c mouse implanted with mouse 4T1 cells assessed as increase in AST level at 0.2 mmol/Kg, po administered once every day for 14 days by routine blood analysis; format: organism-based; conditions: in vivo, 336 h, time 14 day
[10] = Toxicity in BALB/c mouse implanted with mouse 4T1 cells assessed as blurred spleen morphology at 0.2 mmol/Kg, po administered once every day for 14 days; format: organism-based; conditions: in vivo, 336 h, time 14 day
[11] = Toxicity in BALB/c mouse implanted with mouse 4T1 cells assessed as reduction in spleen index at 0.2 mmol/Kg, po administered once every day for 14 days relative to control; format: organism-based; conditions: in vivo, 336 h, time 14 day
4T1 [12] = assay: Antitumor activity against mouse 4T1 cells implanted in BALB/c mouse assessed as change in tumor weight at 0.2 mmol/Kg, po administered once every day for 14 days; format: functional, organism-based; conditions: time 14.0 day
4T1 [13] = assay: Inhibition of cell migration in mouse 4T1 cells assessed as reduction in wound healing incubated for 24 hrs by microscopic analysis; format: functional, cell-based
4T1 [14] = assay: Antitumor activity against mouse 4T1 cells implanted in BALB/c mouse assessed as tumor cell shrinkage at 0.2 mmol/Kg, po administered once every day for 14 days by histological staining based analysis; format: functional, organism-based; conditions: time 14.0 day
[15] = Toxicity in BALB/c mouse implanted with mouse 4T1 cells assessed as change in lung histopathology at 0.2 mmol/Kg, po administered once every day for 14 days; format: organism-based; conditions: in vivo, 336 h, time 14 day
[16] = Toxicity in BALB/c mouse implanted with mouse 4T1 cells assessed as increase in monocytes at 0.2 mmol/Kg, po administered once every day for 14 days by routine blood analysis; format: organism-based; conditions: in vivo, 336 h, time 14 day
[17] = Toxicity in BALB/c mouse implanted with mouse 4T1 cells assessed as effect on BUN level at 0.2 mmol/Kg, po administered once every day for 14 days by routine blood analysis; format: organism-based; conditions: in vivo, 336 h, time 14 day
[18] = Toxicity in BALB/c mouse implanted with mouse 4T1 cells assessed as change in heart histopathology at 0.2 mmol/Kg, po administered once every day for 14 days; format: organism-based; conditions: in vivo, 336 h, time 14 day
[19] = Toxicity in BALB/c mouse implanted with mouse 4T1 cells assessed as increase in ALT level at 0.2 mmol/Kg, po administered once every day for 14 days by routine blood analysis; format: organism-based; conditions: in vivo, 336 h, time 14 day
[20] = Toxicity in BALB/c mouse implanted with mouse 4T1 cells assessed as change in liver histopathology at 0.2 mmol/Kg, po administered once every day for 14 days; format: organism-based; conditions: in vivo, 336 h, time 14 day
4T1 [21] = assay: Induction of apoptosis in mouse 4T1 cells assessed as apoptotic rate at 250 micromol/L incubated for 24 hrs by Annexin-V/PI staining based flow cytometry relative to control; format: functional; conditions: dose 250 µmol/L, at 250 µM
[22] = Toxicity in BALB/c mouse implanted with mouse 4T1 cells assessed as effect on CREA level at 0.2 mmol/Kg, po administered once every day for 14 days by routine blood analysis; format: organism-based; conditions: in vivo, 336 h, time 14 day
[23] = Toxicity in BALB/c mouse implanted with mouse 4T1 cells assessed as increase in mean platelet volume at 0.2 mmol/Kg, po administered once every day for 14 days by routine blood analysis; format: organism-based; conditions: in vivo, 336 h, time 14 day
4T1 [24] = assay: Antitumor activity against mouse 4T1 cells implanted in BALB/c mouse assessed as tumor growth inhibition at 0.2 mmol/Kg, po administered once every day for 14 days relative to control; format: functional; conditions: 4T1, 336 h, time 14 day, read-out: TGI
[25] = Prodrug conversion in carboxylesterase (unknown origin) solution assessed as drug hydrolysis by measuring stachydrine release at 3 to 20 hrs; format: ADME, Homo sapiens; conditions: time 3-20 hrs
4T1 [26] = assay: Induction of apoptosis in mouse 4T1 cells assessed as apoptotic rate at 1000 micromol/L incubated for 24 hrs by Annexin-V/PI staining based flow cytometry relative to control; format: functional; conditions: dose 1000 µmol/L, at 1000 µM
[27] = Toxicity in BALB/c mouse implanted with mouse 4T1 cells assessed as increase in white blood cells at 0.2 mmol/Kg, po administered once every day for 14 days by routine blood analysis; format: organism-based; conditions: in vivo, 336 h, time 14 day
[28] = Toxicity in BALB/c mouse implanted with mouse 4T1 cells assessed as splenic edema at 0.2 mmol/Kg, po administered once every day for 14 days; format: organism-based; conditions: in vivo, 336 h, time 14 day
[29] = Toxicity in BALB/c mouse implanted with mouse 4T1 cells assessed as increase in neutrophil granulocytes at 0.2 mmol/Kg, po administered once every day for 14 days by routine blood analysis; format: organism-based; conditions: in vivo, 336 h, time 14 day
4T1 [30] = assay: Induction of apoptosis in mouse 4T1 cells assessed as apoptotic rate at 50 micromol/L incubated for 24 hrs by Annexin-V/PI staining based flow cytometry relative to control; format: functional; conditions: dose 50 µmol/L, at 50 µM
[31] = Toxicity in BALB/c mouse implanted with mouse 4T1 cells assessed as increase in lymphocytes at 0.2 mmol/Kg, po administered once every day for 14 days by routine blood analysis; format: organism-based; conditions: in vivo, 336 h, time 14 day
[32] = Toxicity in BALB/c mouse implanted with mouse 4T1 cells assessed as change in kidney histopathology at 0.2 mmol/Kg, po administered once every day for 14 days; format: organism-based; conditions: in vivo, 336 h, time 14 day
4T1 [33] = assay: Induction of mitochondrial membrane potential loss in mouse 4T1 cells assessed as green fluorescence at 250 uM incubated for 24 hrs by JC-1 staining based flow cytometric analysis (reference value: 11.7%); format: cell-based
4T1 [34] = assay: Antitumor activity against mouse 4T1 cells implanted in BALB/c mouse assessed as tumor cell necrosis at 0.2 mmol/Kg, po administered once every day for 14 days by histological staining based analysis; format: functional, organism-based; conditions: time 14.0 day
4T1 [35] = assay: Induction of apoptosis in mouse 4T1 cells assessed as apoptotic rate at 0.3 micromol/L incubated for 24 hrs by Annexin-V/PI staining based flow cytometry relative to control; format: functional; conditions: dose 0.3 µmol/L, at 0.3 µM
4T1 [36] = assay: Induction of apoptosis in mouse 4T1 cells assessed as apoptotic rate at 2 micromol/L incubated for 24 hrs by Annexin-V/PI staining based flow cytometry relative to control; format: functional; conditions: dose 2 µmol/L, at 2 µM
4T1 [37] = assay: Induction of apoptosis in mouse 4T1 cells assessed as apoptotic rate at 0.04 micromol/L incubated for 24 hrs by Annexin-V/PI staining based flow cytometry relative to control; format: functional; conditions: dose 0.04 µmol/L, at 0.04 µM
4T1 [38] = assay: Induction of mitochondrial membrane potential loss in mouse 4T1 cells assessed as red fluorescence at 50 uM incubated for 24 hrs by JC-1 staining based flow cytometric analysis (reference value: 87.9%); format: cell-based
4T1 [39] = assay: Induction of mitochondrial membrane potential loss in mouse 4T1 cells assessed as green fluorescence at 50 uM incubated for 24 hrs by JC-1 staining based flow cytometric analysis (reference value: 11.7%); format: cell-based
4T1 [40] = assay: Induction of apoptosis in mouse 4T1 cells assessed as apoptotic rate at 8000 micromol/L incubated for 24 hrs by Annexin-V/PI staining based flow cytometry relative to control; format: functional; conditions: dose 8000 µmol/L, at 8000 µM
4T1 [41] = assay: Induction of mitochondrial membrane potential loss in mouse 4T1 cells assessed as green fluorescence at 4000 uM incubated for 24 hrs by JC-1 staining based flow cytometric analysis (reference value: 11.7%); format: cell-based
4T1 [42] = assay: Induction of apoptosis in mouse 4T1 cells assessed as apoptotic rate at 4000 micromol/L incubated for 24 hrs by Annexin-V/PI staining based flow cytometry relative to control; format: functional; conditions: dose 4000 µmol/L, at 4000 µM
4T1 [43] = assay: Induction of mitochondrial membrane potential loss in mouse 4T1 cells assessed as red fluorescence at 4000 uM incubated for 24 hrs by JC-1 staining based flow cytometric analysis (Rvb= 87.9%); format: cell-based

CCCCCCOC(=O)C1CCC[N+]1(C)C (stereo not drawn)
IC50 (4T1 [1]): 2550 µM
IC50 (4T1 [2]): 1100 µM
IC50 (4T1 [3]): 1560 µM

CCCCCCCCOC(=O)C1CCC[N+]1(C)C.[Cl-] (stereo not drawn)
Drug metabolism [4]: Metabolite_Detected
Activity [5]: Toxic
Drug metabolism [6]: Metabolite_Detected
Activity (4T1 [7]): 46.5%
Activity [8]: Toxic
Activity [9]: Toxic
IC50 (4T1 [1]): 508 µM
Activity [10]: Toxic
Activity [11]: Toxic
Activity (4T1 [12]): Active
inhibition (4T1 [13]): Dose-Dependent Effect
Activity (4T1 [14]): Active
Activity [15]: Non-Toxic
Activity [16]: Non-Toxic
Activity [17]: Non-Toxic
Activity [18]: Non-Toxic
IC50 (4T1 [2]): 140 µM
Activity [19]: Toxic
Activity [20]: Non-Toxic
Activity (4T1 [21]): 69.9%
Activity [22]: Non-Toxic
Activity [23]: Non-Toxic
inhibition in vivo at 200 µmol/kg (4T1 [24]): 51.5%
Drug metabolism [25]: Metabolite_Detected
Activity (4T1 [26]): 80.8%
Activity [27]: Non-Toxic
Activity [28]: Toxic
Activity [29]: Non-Toxic
Activity (4T1 [30]): 36.82%
Activity [31]: Non-Toxic
Activity [32]: Non-Toxic
Activity (4T1 [33]): 53.5%
IC50 (4T1 [3]): 249 µM
Activity (4T1 [34]): Active

CCCCCCCCCCCCCCCCOC(=O)C1CCC[N+]1(C)C.[Cl-] (stereo not drawn)
Drug metabolism [4]: Metabolite_Detected
Drug metabolism [6]: Metabolite_Detected
Activity (4T1 [35]): 62.1%
IC50 (4T1 [1]): 0.858 µM
IC50 (4T1 [2]): 0.341 µM
Drug metabolism [25]: Metabolite_Detected
Activity (4T1 [36]): 72%
Activity (4T1 [37]): 52%
IC50 (4T1 [3]): 0.701 µM

N#CC(C#N)=NNc1cccc(Cl)c1
Activity (4T1 [38]): 51.1%
Activity (4T1 [39]): 48.4%

CCCCCCCCCCOC(=O)C1CCC[N+]1(C)C (stereo not drawn)
IC50 (4T1 [1]): 204 µM
IC50 (4T1 [2]): 98 µM
IC50 (4T1 [3]): 136 µM

CCCCOC(=O)C1CCC[N+]1(C)C.[Cl-] (stereo not drawn)
Drug metabolism [4]: Metabolite_Detected
Activity [5]: Toxic
Drug metabolism [6]: Metabolite_Detected
Activity [8]: Toxic
Activity [9]: Toxic
Activity (4T1 [40]): 51.28%
IC50 (4T1 [1]): 6380 µM
Activity [10]: Toxic
Activity [11]: Toxic
Activity (4T1 [12]): Active
Activity (4T1 [14]): Active
Activity [15]: Non-Toxic
Activity [16]: Non-Toxic
Activity [17]: Non-Toxic
Activity [18]: Non-Toxic
IC50 (4T1 [2]): 5170 µM
Activity [19]: Toxic
Activity [20]: Non-Toxic
Activity (4T1 [41]): 38.9%
Activity [22]: Non-Toxic
Activity [23]: Non-Toxic
inhibition in vivo at 200 µmol/kg (4T1 [24]): 45.1%
Drug metabolism [25]: Metabolite_Detected
Activity (4T1 [26]): 29.06%
Activity [27]: Non-Toxic
Activity [28]: Toxic
Activity (4T1 [42]): 39.8%
Activity (4T1 [43]): 60.9%
Activity [29]: Non-Toxic
Activity [31]: Non-Toxic
Activity [32]: Non-Toxic
IC50 (4T1 [3]): 6310 µM
Activity (4T1 [34]): Active

CCCCCCCCCCCCCCCCCCOC(=O)C1CCC[N+]1(C)C (stereo not drawn)
IC50 (4T1 [1]): 2.42 µM
IC50 (4T1 [2]): 2.01 µM
IC50 (4T1 [3]): 2.73 µM

CCOC(=O)C1CCC[N+]1(C)C (stereo not drawn)
IC50 (4T1 [1]): 1710 µM
IC50 (4T1 [2]): 7890 µM
IC50 (4T1 [3]): 14000 µM

CCCCCCCCCCCCCCOC(=O)C1CCC[N+]1(C)C (stereo not drawn)
IC50 (4T1 [1]): 165 µM
IC50 (4T1 [2]): 57 µM
IC50 (4T1 [3]): 166 µM
